Earlier results on one compound are cited in PubChem BioAssay AID1259409 (Chemical Carcinogenesis Research Information System (CCRIS), 2018).

The series deals with rodent chemically induced tumor inhibition, incidence and multiplicity. Description: CCRIS tumor inhibitor studies. Conditions: Carcinogen: N-NITROBIS(2-OXOPROPYL)AMINE, 60559-38-4, Dose [Inhibitor]: 0.5 OR 1.0 MMOL/KG DIET DAILY STARTING 1 WK AFTER CARCINOGEN TREATMENT AND CONTINUING THROUGH THE END OF THE STUDY (STUD, Route [Inhibitor]: ORAL, Species: HAMSTER, Promoter: NONE USED.

Turning to `CC1=C(/C=C/C(C)=C/C=C/C(C)=C/C(=O)NCCO)C(C)(C)CCC1`, the “tumour outcome (control, treated, inhibition, significance)” value (Strain/Sex: SYRIAN/FEMALE, Target Tissue: Type of Lesion: LIVER: BENIGN TUMOR, Dose [Carcinogen]: 40 MG/KG BW ONCE) is 4/20 (20%), 17/35 (49%), -145%, not significant; the “tumour outcome (control, treated, inhibition, significance)” value (Strain/Sex: SYRIAN/FEMALE, Target Tissue: Type of Lesion: ND: TOTAL TUMOR, Dose [Carcinogen]: 10 MG/KG BW ONCE) was 13/23 (56%), 21/37 (57%), -2%, not significant; the “tumour outcome (control, treated, inhibition, significance)” value (Strain/Sex: SYRIAN/FEMALE, Target Tissue: Type of Lesion: ND: TOTAL TUMOR, Dose [Carcinogen]: 40 MG/KG BW ONCE) is recorded as 17/20 (85%), 33/34 (97%), -14%, not significant; the “tumour outcome (control, treated, inhibition, significance)” value (Strain/Sex: SYRIAN/FEMALE, Target Tissue: Type of Lesion: PANCREAS: DUCTULAR ADENOMA, Dose [Carcinogen]: 10 MG/KG BW ONCE) is recorded as 5/23 (23%), 10/37 (27%), -17%, not significant; the “tumour outcome (control, treated, inhibition, significance)” value (Strain/Sex: SYRIAN/FEMALE, Target Tissue: Type of Lesion: PANCREAS: DUCTULAR ADENOMA, Dose [Carcinogen]: 40 MG/KG BW ONCE) is on record as 12/20 (60%), 27/33 (82%), -37%, not significant; the “tumour outcome (control, treated, inhibition, significance)” value (Strain/Sex: SYRIAN/FEMALE, Target Tissue: Type of Lesion: PANCREAS: DUCTULAR CARCINOMA, Dose [Carcinogen]: 40 MG/KG BW ONCE) is listed as 6/20 (30%), 8/33 (24%), 20%, not significant. Besides, the “tumour outcome (control, treated, inhibition, significance)” value is listed as 5/24 (21%), 26/42 (62%), -195%, p<0.05 (Strain/Sex: SYRIAN/MALE, Target Tissue: Type of Lesion: LIVER: BENIGN TUMOR, Dose [Carcinogen]: 40 MG/KG BW ONCE); 12/20 (54%), 31/39 (79%), -46%, not significant (Strain/Sex: SYRIAN/MALE, Target Tissue: Type of Lesion: ND: TOTAL TUMOR, Dose [Carcinogen]: 10 MG/KG BW ONCE); 20/24 (83%), 41/42 (98%), -18%, not significant (Strain/Sex: SYRIAN/MALE, Target Tissue: Type of Lesion: ND: TOTAL TUMOR, Dose [Carcinogen]: 40 MG/KG BW ONCE); 3/22 (14%), 16/37 (43%), -207%, not significant (Strain/Sex: SYRIAN/MALE, Target Tissue: Type of Lesion: PANCREAS: DUCTULAR ADENOMA, Dose [Carcinogen]: 10 MG/KG BW ONCE); 8/24 (33%), 34/42 (81%), -145%, not significant (Strain/Sex: SYRIAN/MALE, Target Tissue: Type of Lesion: PANCREAS: DUCTULAR ADENOMA, Dose [Carcinogen]: 40 MG/KG BW ONCE).
